What all share (experiment): NCI tumour cell line growth inhibition, 48 h
The subject of test [1] is HL-60(TB) leukemia.
The subject of test [2] is SR leukemia.
The test system of test [3] is LOX IMVI melanoma.
Test [4] deals with SNB-19 CNS.
The test system of test [5] is SF-295 CNS.
For test [6], the system named is CCRF-CEM leukemia.
For test [7], the system named is OVCAR-5 ovarian.
Test [8] concerns SNB-75 CNS.
In test [9] the test system is HOP-62 NSCLC.
Test [10] relates to IGROV1 ovarian.

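Following 48 hours of exposure in 96-well plates, responses at five concentrations were used to interpolate endpoints linearly. GI50: concentration for 50% inhibition of growth. TGI: concentration producing complete growth inhibition.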

Take `C=C(C(=O)C(=O)Oc1ccc(Cl)cc1)C(=O)c1ccc(C)cc1`: the TGI was over 100 µM in test [1]; 57.6 µM in test [2]; 16.5 µM in [3]; over 100 µM in test [4]; over 100 µM in test [5]; over 100 µM in test [6]. Further, the TGI in test [7], in [8], in test [9] and in [10] was over 100 µM each time.
`C/C(CCOC1CCCCO1)=C(\C)[Si](C)(C)C` (centres undefined): the TGI in test [1], in [2], in [3], in [4], in [5] and in test [6] was over 100 µM each time. Further, the TGI in test [7], in test [8] and in test [10] was over 100 µM throughout.
As for `CCOC(=O)c1csc(NC(=O)CCN(CC)CC)n1`, the TGI in test [1] was over 100 µM; in [2], over 100 µM; in test [3], over 100 µM; in test [4] it was over 100 µM; in test [5], over 100 µM; in test [6] it was 83.3 µM. For the same molecule, the TGI in test [7] is over 100 µM; in test [8], 73.5 µM; in [9] it was over 100 µM; in [10], over 100 µM.
As to `O=C1C(Cl)=C(N2CCN(C3=C(Cl)C(=O)c4ccccc4C3=O)CC2)C(=O)c2ccccc21`, the TGI is 1.26 µM in test [1]; 0.458 µM in test [2]; 3.12 µM in [3]; 28.7 µM in test [4]; 21.5 µM in test [5]; 0.718 µM in [6]. The TGI was 12.7 µM in test [7], 9.86 µM in test [8], 25.5 µM in test [9] and 4.11 µM in test [10].
Turning to `Oc1ccc(/C=C/c2cc(O)cc(O)c2)cc1`, the TGI in test [1], in [2], in [4], in [5], in test [7] and in [8] was over 100 µM each time. Moreover, in test [9], the TGI is over 100 µM.
Consider `COC(=O)C1C(C(=O)OC)N(Cc2ccccc2)C(=O)N1Cc1ccccc1` (centres undefined), for which the TGI in test [1], in [3], in test [4], in [5], in test [6] and in test [7] was over 100 µM in each case. The TGI in test [8], in [9] and in [10] was over 100 µM in each case.
As for `C[C@]12CC[C@@H]3c4ccc(O)cc4CC[C@H]3[C@@H]1C/C(=C\c1ccncc1)C2=O`, the TGI in test [1] was 68 µM; in [2] it was over 100 µM; in [3] it was 58.9 µM; in test [4], over 100 µM; in test [5], over 100 µM; in [6], over 100 µM. Also, the TGI is over 100 µM in test [7], over 100 µM in test [8], over 100 µM in test [9] and 68.3 µM in test [10].
On to `CCCc1cc(=O)c2c(C)c3[nH]c4ccc(Cl)cc4c3c(C)c2[nH]1`, for which the TGI in [2] stood at 4.93 µM; in [3] it was 3.33 µM; in test [4], 8.9 µM; in [5], 3.96 µM; in test [6], 5.83 µM; in [7] it was 5.58 µM. The values for the TGI in test [8], in test [9] and in test [10] were 7.93 µM, 6.15 µM and 4.7 µM, respectively.
Regarding `N.N.N.O=[N+]([O-])[O-].O=[N+]([O-])[O-].O=[N+]([O-])[O-].O=[N+]([O-])[O-].[Co+3]`, the TGI in test [1], in [3], in test [4], in test [5], in test [6] and in test [7] was over 100 µM in each case. The TGI in test [8], in test [9] and in test [10] was over 100 µM each time.
`COc1ccc2[nH]c(O)c(/C=c3/cc4c(c(-c5cc(OC)c(OC)c(OC)c5)n3)=Nc3ccccc3-4)c2c1`: the GI50 in test [1] is 7.46 µM; in [2], 1590 nM; in test [3] it was 7.54 µM; in [4], 26 µM; in [5], 8.97 µM; in [6], 1410 nM. For the same molecule, the GI50 in test [7] was over 100 µM; in test [8], 26.7 µM; in [9] it was 11.6 µM; in test [10] it was over 100 µM. Besides, the TGI is 34 µM in [1]; 8.79 µM in test [2]; over 100 µM in [3]; over 100 µM in test [4]; over 100 µM in test [5]; 12.4 µM in test [6]. In addition, the TGI in test [7], in [8], in [9] and in test [10] was over 100 µM in each case.
`C#CCCCCC#Cc1ccccc1C(=O)OC`: the TGI in test [1] is 29.4 µM; in [2], 29.2 µM; in test [3] it was 33.1 µM; in [4] it was over 100 µM; in test [5], over 100 µM; in test [6], 32.4 µM. Besides, the TGI is over 100 µM in test [7], 86.5 µM in [8], over 100 µM in test [9] and over 100 µM in test [10].
In the case of `NC(N)=NS(=O)(=O)c1ccc(NCc2c3ccccc3[n+]([O-])c3ccccc23)cc1`, the TGI in test [1] is 44.4 µM; in test [3], 90.9 µM; in test [4], over 100 µM; in [5], over 100 µM; in [6], 84.4 µM; in test [7], over 100 µM. Further, the TGI in test [8] is 84.8 µM; in [9] it was over 100 µM; in test [10] it was over 100 µM.
As for `CC(C)OP(=O)(OC(C)C)c1c(Nc2ccccc2)n[nH]c1N`, the TGI in test [2], in test [3], in [4], in test [5], in test [6] and in test [7] was over 100 µM each time. Besides, the TGI in [8], in test [9] and in [10] was over 100 µM in each case.
`O=C(O)CC/C(=N\Nc1nsc2ccccc12)c1ccccc1`: the TGI in test [1] was 71.9 µM; in [2], 93.3 µM; in test [3], over 100 µM; in test [4], over 100 µM; in test [6] it was 96.7 µM; in test [7], over 100 µM. Moreover, the TGI in test [8] was 61.3 µM; in [9], over 100 µM; in test [10] it was over 100 µM.
In the case of `CCN1c2ccccc2-n2c(C)nnc2-c2c1n[nH]c2-c1ccccc1`, the TGI in test [1] was 28.5 µM; in test [2], 59.2 µM; in test [3], 89.2 µM; in test [4] it was over 100 µM; in test [5] it was over 100 µM; in test [6] it was 55.4 µM. Besides, the TGI in [7], in test [8] and in [10] was over 100 µM throughout.

The record behind these values is PubChem BioAssay (NCI).
